Read-outs that look alike come from different tables or passages of the source.
Columns and labels:
FMS (h) = molecular target: T1, FMS (h) (Homo sapiens, UniProt P07333); experiment: Kinase HotSpot radiometric assay, activity on CSF-1R (FMS); format: biochemical
T1 construct: purchased Reaction Biology Corp. (Kinase HotSpot service)

metabolic stability (MS) = format: in vitro ADME
CSF-1R = molecular target: T2, CSF-1R (Homo sapiens, UniProt P07333); experiment: protein kinase profile for 50 selected protein Kinase (FIG. 5), CSF-1R; format: biochemical; conditions: single-dose concentration 1.0 μM
T2 construct: purchased Reaction Biology Corp. (Kinase HotSpot service)
T2 sequence (P07333 20-972): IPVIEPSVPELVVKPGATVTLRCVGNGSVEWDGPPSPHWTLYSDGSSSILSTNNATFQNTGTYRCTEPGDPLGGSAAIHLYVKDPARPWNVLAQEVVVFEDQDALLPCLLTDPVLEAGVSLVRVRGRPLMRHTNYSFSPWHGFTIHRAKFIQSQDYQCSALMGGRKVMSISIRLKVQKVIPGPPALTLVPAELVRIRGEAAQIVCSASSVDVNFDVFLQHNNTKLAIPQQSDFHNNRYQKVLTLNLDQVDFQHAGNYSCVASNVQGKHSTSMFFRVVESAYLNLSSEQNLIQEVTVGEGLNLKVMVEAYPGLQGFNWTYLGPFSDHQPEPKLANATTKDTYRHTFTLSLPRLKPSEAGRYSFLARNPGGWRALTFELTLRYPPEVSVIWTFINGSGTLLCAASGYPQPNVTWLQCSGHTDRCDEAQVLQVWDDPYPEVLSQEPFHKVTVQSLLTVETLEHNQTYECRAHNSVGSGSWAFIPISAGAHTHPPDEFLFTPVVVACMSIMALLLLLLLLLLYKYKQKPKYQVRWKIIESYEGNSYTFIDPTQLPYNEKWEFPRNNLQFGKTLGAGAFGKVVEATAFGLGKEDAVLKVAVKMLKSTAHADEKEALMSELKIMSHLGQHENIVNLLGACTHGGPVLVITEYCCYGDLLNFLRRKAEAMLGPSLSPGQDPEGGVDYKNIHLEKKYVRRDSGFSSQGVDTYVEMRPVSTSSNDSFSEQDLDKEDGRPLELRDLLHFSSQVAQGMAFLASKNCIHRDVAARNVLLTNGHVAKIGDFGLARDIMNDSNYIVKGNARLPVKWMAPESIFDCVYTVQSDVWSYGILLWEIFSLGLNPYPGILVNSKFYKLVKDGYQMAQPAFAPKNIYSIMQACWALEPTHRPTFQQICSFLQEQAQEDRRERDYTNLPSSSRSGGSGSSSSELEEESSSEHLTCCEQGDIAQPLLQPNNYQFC

CRaf = molecular target: T3, CRaf (Homo sapiens, UniProt P04049); experiment: protein kinase profile for 50 selected protein Kinase (FIG. 5), CRaf; format: biochemical; conditions: single-dose concentration 1.0 μM
T3 construct: purchased Reaction Biology Corp. (Kinase HotSpot service)
T3 sequence (P04049 whole entry): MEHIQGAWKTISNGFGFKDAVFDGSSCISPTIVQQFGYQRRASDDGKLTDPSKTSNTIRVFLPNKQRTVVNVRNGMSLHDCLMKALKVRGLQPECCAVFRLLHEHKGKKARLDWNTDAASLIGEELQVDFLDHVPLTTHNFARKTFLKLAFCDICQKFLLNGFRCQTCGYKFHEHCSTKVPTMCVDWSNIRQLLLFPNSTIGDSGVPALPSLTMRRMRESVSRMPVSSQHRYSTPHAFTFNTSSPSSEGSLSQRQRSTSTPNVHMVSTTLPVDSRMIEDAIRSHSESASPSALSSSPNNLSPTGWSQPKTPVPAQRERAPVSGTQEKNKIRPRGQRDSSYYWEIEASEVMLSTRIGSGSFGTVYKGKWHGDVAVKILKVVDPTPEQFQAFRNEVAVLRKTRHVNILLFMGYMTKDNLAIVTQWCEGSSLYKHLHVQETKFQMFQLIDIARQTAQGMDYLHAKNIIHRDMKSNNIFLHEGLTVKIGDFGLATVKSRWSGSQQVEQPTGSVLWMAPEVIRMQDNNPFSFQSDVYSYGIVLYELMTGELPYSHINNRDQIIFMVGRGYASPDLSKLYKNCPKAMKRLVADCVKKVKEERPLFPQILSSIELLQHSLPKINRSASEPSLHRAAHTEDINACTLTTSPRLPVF

BRafV600E = molecular target: T4, BRafV600E (Homo sapiens, UniProt P15056, V600E); experiment: protein kinase profile for 50 selected protein Kinase (FIG. 5), BRafV600E; format: biochemical; conditions: single-dose concentration 1.0 μM
T4 construct: purchased Reaction Biology Corp. (Kinase HotSpot service)
T4 sequence (P15056 416-766 V600E limits assumed): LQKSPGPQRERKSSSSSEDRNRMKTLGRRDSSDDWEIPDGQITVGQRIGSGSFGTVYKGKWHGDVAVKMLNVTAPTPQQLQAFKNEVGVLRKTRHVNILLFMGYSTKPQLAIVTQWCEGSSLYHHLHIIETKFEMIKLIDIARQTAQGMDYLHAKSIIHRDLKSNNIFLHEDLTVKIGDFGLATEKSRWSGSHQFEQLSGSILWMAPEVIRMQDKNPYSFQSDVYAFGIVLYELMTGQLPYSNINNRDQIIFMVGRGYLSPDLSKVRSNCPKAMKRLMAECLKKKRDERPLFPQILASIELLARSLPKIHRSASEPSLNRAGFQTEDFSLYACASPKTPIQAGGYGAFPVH

Lyn = molecular target: T5, Lyn (Homo sapiens, UniProt P07948); experiment: protein kinase profile for 50 selected protein Kinase (FIG. 5), Lyn; format: biochemical; conditions: single-dose concentration 1.0 μM
T5 construct: purchased Reaction Biology Corp. (Kinase HotSpot service)
T5 sequence (P07948 whole entry): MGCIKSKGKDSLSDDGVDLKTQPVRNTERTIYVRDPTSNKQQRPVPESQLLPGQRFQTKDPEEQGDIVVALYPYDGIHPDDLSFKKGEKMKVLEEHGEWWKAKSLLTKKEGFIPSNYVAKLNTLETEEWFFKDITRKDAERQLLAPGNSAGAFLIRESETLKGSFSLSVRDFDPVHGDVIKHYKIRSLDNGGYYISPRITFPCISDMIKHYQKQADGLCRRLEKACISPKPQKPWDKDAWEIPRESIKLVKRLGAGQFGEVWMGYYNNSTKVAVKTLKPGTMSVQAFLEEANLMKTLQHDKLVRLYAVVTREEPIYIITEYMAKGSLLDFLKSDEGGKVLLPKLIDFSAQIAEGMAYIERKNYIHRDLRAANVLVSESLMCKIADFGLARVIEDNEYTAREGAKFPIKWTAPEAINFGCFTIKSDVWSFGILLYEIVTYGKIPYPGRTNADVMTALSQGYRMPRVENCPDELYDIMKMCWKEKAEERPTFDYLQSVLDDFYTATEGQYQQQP

PAMPA assay = format: in vitro ADME; conditions: read-out: PAMPA assay Pe Avg
plasma stability (PS) = format: in vitro ADME
EMS and FLT3 = experiment: Protein Kinase Profiling analysis, selectivity (FIG. 4); format: biochemical
[1] = Table 3, read-out: IC50 (M) on FMS

T1 sequence (P07333 20-972): as the sequence (P07333 20-972) above

Row | Structure (SMILES) | IC50 (FMS (h); Table 1, read-out: IC50) | IC50 (FMS (h); [1]) | also measured
1 | Cc1ccc(NC(=O)c2cc(N3CCN(C)CC3)cc(C(F)(F)F)c2)cc1NC(=O)c1cnoc1C [Comparative example 1, reference compound] | – | – | IC50 (FMS (h); Table 5, read-out: IC50 on CSF-1R): 1.03e-08 M; MS (human) %@60 min (metabolic stability (MS)): <10%; inhibitory activity against CSF-1R (CSF-1R): inhibitory activity; inhibitory activity against CRaf (CRaf): inhibitory activity; inhibitory activity against BRafV600E (BRafV600E): inhibitory activity; inhibitory activity against Lyn (Lyn): inhibitory activity
2 | Cc1cc(C(=O)Nc2cc(NC(=O)c3cc(N4CCN(C)CC4)cc(C(F)(F)F)c3)ccc2C)no1 [Compound 5a, 5-methyl-N-(2-methyl-5-(3-(4-methylpiperazin-1-yl)-5-(trifluoromethyl)benzamido)phenyl)isoxazole-3-carboxamide] | – | – | Papp (PAMPA assay): 55.5 ×10⁻⁶ cm/s; PS (human) @30 min (plasma stability (PS); 30 min): > 100%; PS (human) @60 min (plasma stability (PS); 60 min): > 100%
3 | CCN1CCC(c2ccc(NC(=O)c3cc(C)on3)c(C3CCCCC3)c2)CC1 [Compound 74b, N-(2-cyclohexyl-4-(1-ethylpiperidin-4-yl)phenyl)-5-methylisoxazole-3-carboxamide] | > 1e-06 M | > 1e-06 M | –
4 | CCN1CCC(c2ccc(NC(=O)c3cc(C)on3)c(C3CCCC3)c2)CC1 [Compound 75b, N-(2-Cyclopentyl-4-(1-ethylpiperidin-4-yl)phenyl)-5-methylisoxazole-3-carboxamide] | > 1e-06 M | > 1e-06 M | –
5 | Cc1cc(C(=O)Nc2ccc(C3CC[N+](C)(C)CC3)cc2C2CCCCC2)no1 [Compound 81b, 4-(3-cyclohexyl-4-(5-methylisoxazole-3-carboxamido)phenyl)-1,1-dimethylpiperidin-1-ium] | – | 1e-07 to 1e-06 M | –
6 | CC[N+]1(CC)CCC(c2ccc(NC(=O)c3cc(C)on3)c(C3=CCCCC3)c2)CC1 [Compound 82b, 1,1-diethyl-4-(6-(5-methylisoxazole-3-carboxamido)-2′,3′,4′,5′-tetrahydro-[1,1′-biphenyl]-3-yl)piperidin-1-ium] | – | < 1e-07 M | –
7 | CC(=O)N1CCC(c2ccc(NC(=O)c3cc(C)on3)c(C3=CCCCC3)c2)CC1 [Compound 83b, N-(5-(1-acetylpiperidin-4-yl)-2′,3′,4′,5′-tetrahydro-[1,1′-biphenyl]-2-yl)-5-methylisoxazole-3-carboxamide] | – | 1e-07 to 1e-06 M | –
8 | Cc1cc(C(=O)Nc2ccc(C3CCN(C(=O)CN(C)C)CC3)cc2C2=CCCCC2)no1 [Compound 84b, N-(5-(1-(dimethylglycyl)piperidin-4-yl)-2′,3′,4′,5′-tetrahydro-[1,1′-biphenyl]-2-yl)-5-methylisoxazole-3-carboxamide] | – | 1e-07 to 1e-06 M | –
9 | Cc1cc(C(=O)Nc2ccc(C3CC(C)(C)NC(C)(C)C3)cc2C2=CCCCC2)no1 [Compound 92a, 5-methyl-N-(5-(2,2,6,6-tetramethylpiperidin-4-yl)-2′,3′,4′,5′-tetrahydro-[1,1′-biphenyl]-2-yl)isoxazole-3-carboxamide] | – | < 1e-07 M | IC50 (FMS (h); Table 2, read-out: IC50 (μm)): 1e-07 to 1e-06 M
10 | Cc1cc(C(=O)Nc2ccc(C3CC(C)(C)NC(C)(C)C3)cc2C2=CCC(C)CC2)no1 (stereo not drawn) [Compound 92b, 5-methyl-N-(4′-methyl-5-(2,2,6,6-tetramethylpiperidin-4-yl)-2′,3′,4,5′-tetrahydro-[1,1′-biphenyl]-2-yl)isoxazole-3-carboxamide] | – | < 1e-07 M | IC50 (FMS (h); Table 2, read-out: IC50 (μm)): < 1e-07 M; kinase selectivity of EMS and FLT3 (EMS and FLT3): high selectivity
11 | Cc1cc(C(=O)Nc2ccc(C3CC(C)(C)NC(C)(C)C3)cc2C2=CCC(C)(C)CC2)no1 [Compound 92c, N-(4′,4′-dimethyl-5-(2,2,6,6-tetramethylpiperidin-4-yl)-2,3′,4′,5′-tetrahydro-[1,1′-biphenyl]-2-yl)-5-methylisoxazole-3-carboxamide] | – | < 1e-07 M | IC50 (FMS (h); Table 2, read-out: IC50 (μm)): < 1e-07 M
12 | Cc1cc(C(=O)Nc2ccc(C3CC(C)(C)NC(C)(C)C3)cc2C2=CCCCCC2)no1 [Compound 92d, N-(2-(cyclohept-1-en-1-yl)-4-(2,2,6,6-tetramethylpiperidin-4-yl)phenyl)-5-methylisoxazole-3-carboxamide] | – | 1e-07 to 1e-06 M | IC50 (FMS (h); Table 2, read-out: IC50 (μm)): 1e-07 to 1e-06 M

More lines, main results first:

Row | IC50 (FMS (h); Table 1, read-out: IC50) | IC50 (FMS (h); [1]) | Structure (SMILES) | also measured
13 | < 1e-07 M | < 1e-07 M | CCN1CCC(c2ccc(NC(=O)c3cc(C)on3)c(C3=CCC(C)CC3)c2)CC1 (stereo not drawn) [Compound 72b, N-(5-(1-Ethylpiperidin-4-yl)-4′-methyl-2′,3′,4′,5′-tetrahydro-[1,1′-biphenyl]-2-yl)-5-methylisoxazole-3-carboxamide] | –
14 | < 1e-07 M | < 1e-07 M | CCN1CCC(c2ccc(NC(=O)c3cc(C)on3)c(C3=CCC(C)(C)CC3)c2)CC1 [Compound 73b, N-(5-(1-ethylpiperidin-4-yl)-4′,4′-dimethyl-2′,3′,4′,5′-tetrahydro-[1,1′-biphenyl]-2-yl)-5-methylisoxazole-3-carboxamide] | –
15 | 1e-07 to 1e-06 M | < 1e-07 M | CC(C)=CCN1CCC(c2ccc(NC(=O)c3cc(C)on3)c(C3=CCCCC3)c2)CC1 [Compound 76b, 5-methyl-N-(5-(1-(3-methylbut-2-en-1-yl)piperidin-4-yl)-2′,3′,4′,5′-tetrahydro-[1,1′-biphenyl]-2-yl)isoxazole-3-carboxamide] | –
16 | < 1e-07 M | < 1e-07 M | Cc1cc(C(=O)Nc2ccc(C3CCN(CC4CC4)CC3)cc2C2=CCC(C)CC2)no1 (stereo not drawn) [Compound 77b, N-(5-(1-(cyclopropylmethyl)piperidin-4-yl)-4′-methyl-2,3,4,5′-tetrahydro-[1,1′-biphenyl]-2-yl)-5-methylisoxazole-3-carboxamide] | –
17 | < 1e-07 M | < 1e-07 M | Cc1cc(C(=O)Nc2ccc(C3CCN(CC4CC4)CC3)cc2C2=CCC(C)(C)CC2)no1 [Compound 78b, N-(5-(1-(cyclopropylmethyl)piperidin-4-yl)-4′,4′-dimethyl-2′,3′,4′,5′-tetrahydro-[1,1′-biphenyl]-2-yl)-5-methylisoxazole-3-carboxamide] | –
18 | – | < 1e-07 M | Cc1cc(C(=O)Nc2ccc(C3CC[N+](C)(C)CC3)cc2C2=CCCCC2)no1 [Compound 79b, 1,1-dimethyl-4-(6-(5-methylisoxazole-3-carboxamido)-2′,3′,4′,5′-tetrahydro-[1,1′-biphenyl]-3-yl)piperidin-1-ium] | –
19 | – | < 1e-07 M | Cc1cc(C(=O)Nc2ccc(C3CCC[N+](C)(C)CC3)cc2C2=CCCCC2)no1 (stereo not drawn) [Compound 79c, 1,1-dimethyl-4-(6-(5-methylisoxazole-3-carboxamido)-2′,3′,4′,5′-tetrahydro-[1,1′-biphenyl]-3-yl)azepan-1-ium] | –
20 | – | < 1e-07 M | Cc1cc(C(=O)Nc2ccc(C3CCC[N+](C)(C)CC3)cc2C2=CCC(C)(C)CC2)no1 (stereo not drawn) [Compound 80c, 4-(4′,4′-dimethyl-6-(5-methylisoxazole-3-carboxamido)-2′,3′,4′,5′-tetrahydro-[1,1′-biphenyl]-3-yl)-1,1-dimethylazepan-1-ium] | –
